Data from patent US8722661B2, “Pyrrolopyrimidone and pyrrolopyridone inhibitors of tankyrase” (Genentech, Inc., priority 2012, dated 2014).

Experiments:
[1] = molecular target: T1, PARP1 (His6-PARP1, full length) (Homo sapiens, UniProt P09874); experiment: μHTS-TNKS-IWR2 TR-FRET binding assay with His6-PARP1 in place of TNKS1; conditions: Table I
T1 construct: His6-PARP1 (full length)
Method: (§1) μHTS-TNKS-IWR2TR-FRET Binding Assay
(§2) (10 μL/well in BD1536-well plate, a single point)
(§3) Alternatively, in place of His6-TNKS1 can use either His6-tankyrase 2 (construct: 934-1166) (His6-TNKS2) or His6-PARP1 (full length).
(§4) Biotin-IWR2: 10 mM Biotin-IWR2 stock in DMSO, stored at −20° C.
Positive control: 10 mM […] in DMSO, stored at −20° C.
(§5) Prepare Biotinylated IWR2 stock solution (3.33× stock) for TOTL and cpd wells: 200 nM Biotin-IWR2 in 5% DMSO/AB1b buffer
(§6) Prepare POSITIVE CONTROL well stock solution (3.33× stock): 200 nM XAV939 in 200 nM Biotin-IWR2/5% DMSO/AB1b buffer
(§7) (Alternatively, use TNKS2 or PARP1 stock solutions.)
(§8) Prepare Eu/APC stock solution (5× stock): 3.5 nM Eu-SA/50 nM APC-His6Ab in AB2 buffer
(§9) Add 25 μL/well 1.5% DMSO/AB1c buffer in each compound well to the compound concentration at 74 μM in 8.8% DMSO/AB1c buffer or in the 2 μL DMSO CONTROL wells (BLANK, TOTAL and POSITIVE wells) in the compound plate.
(§10) Transfer 3 μL/well above solution (solution 1,2,3) to an empty assay plate (BD1536-well plate) as follows:
(§11) Transfer 3 μL/well of the above diluted compound solutions or compound dilution buffer to the above assay plate.
(§12) Add 2 μL/well of 300 nM TNKS stock solution (4) to every well in the above assay plate.
(§13) Incubate the assay plate at 26° C. for 30 minutes.
(§14) Incubate the assay plate at 26° C. for 60 minutes.
(§15) Read the assay plate immediately at excitation wavelength of 330 nm and emission wavelength of […] in time resolved fluorescence mode.
(§16) Representative compound data for assays are listed below in Table I. Values are in uM.

Tankyrase 1 (TNKS1) = molecular target: T2, Tankyrase 1 (TNKS1) (Homo sapiens, UniProt O95271); experiment: μHTS-TNKS-IWR2 TR-FRET binding assay (TNKS1)
T2 construct: construct: 1088-1327, 1266M
Method: as §1, §2
Reagents and Stock Solutions
as §4
Assay buffer 1a (AB 1a) for TNKS dilution: 50 mM Tris, pH 7.4, 100 mM sodium chloride solution, 1 mM magnesium chloride solution, 1 mM DL-dithiothreitol solution, 0.2 mg/mL bovine serum albumin solution, 0.025% NP-40.
Assay buffer 1b (AB 1b) for Biotin-IWR2 dilution: 50 mM Tris, pH 7.4, 100 mM sodium chloride solution, 1 mM magnesium chloride solution, 1 mM DL-dithiothreitol solution, 0.2 mg/mL bovine serum albumin solution, 0.05% NP-40
Assay buffer 1c (AB 1c) for compound dilution: 50 mM Tris, pH 7.4, 100 mM sodium chloride solution, 1 mM magnesium chloride solution, 1 mM DL-dithiothreitol solution, 0.2 mg/mL bovine serum albumin solution
Assay buffer 2 (AB2) for Eu/APC: 50 mM Tris, pH 7.4, 100 mM sodium chloride solution, 1 mM magnesium chloride solution, 0.2 mg/mL bovine serum albumin solution
Reagent Stock Solution Preparation
Prepare BLANK well stock solution: 5% DMSO/AB1b buffer
Prepare TNKS1 stock solution (5× stock): 300 nM TNKS in AB1a buffer
as §10
TOTL and cpd wells: Solution 1 (Biotin-IWR2):
BLNK wells: Solution 2 (No Biotin-IWR2):
POSITIVE CONTROL wells: Solution 3 (Biotin-IWR2+XAV939)
as §11, §12
Centrifuge the assay plate at 2100 rpm for 2 minutes.
as §13, §14

tankyrase 2 (His6-TNKS2) = molecular target: T3, tankyrase 2 (His6-TNKS2) (Homo sapiens, UniProt Q9H2K2); experiment: μHTS-TNKS-IWR2 TR-FRET binding assay with His6-TNKS2 in place of TNKS1; conditions: Table I
T3 construct: His6-tankyrase 2 (construct: 934-1166)
Method: as §1, §2, §3, §4
Positive control: 10 mM XAV 939 in DMSO, stored at −20° C.
as §5, §6, §7, §8, §9, §10, §11, §12, §13, §14, §15, §16

Tankyrase 1 = molecular target: T4, Tankyrase 1 (Homo sapiens, UniProt O95271); experiment: TNKS1 NAM assay (NADase activity, released nicotinamide by LC-MS); type: biochemical; conditions: Table I, value marked with superscript 2 (footnote not given), taken as the second assay
T4 sequence (O95271 1-1327): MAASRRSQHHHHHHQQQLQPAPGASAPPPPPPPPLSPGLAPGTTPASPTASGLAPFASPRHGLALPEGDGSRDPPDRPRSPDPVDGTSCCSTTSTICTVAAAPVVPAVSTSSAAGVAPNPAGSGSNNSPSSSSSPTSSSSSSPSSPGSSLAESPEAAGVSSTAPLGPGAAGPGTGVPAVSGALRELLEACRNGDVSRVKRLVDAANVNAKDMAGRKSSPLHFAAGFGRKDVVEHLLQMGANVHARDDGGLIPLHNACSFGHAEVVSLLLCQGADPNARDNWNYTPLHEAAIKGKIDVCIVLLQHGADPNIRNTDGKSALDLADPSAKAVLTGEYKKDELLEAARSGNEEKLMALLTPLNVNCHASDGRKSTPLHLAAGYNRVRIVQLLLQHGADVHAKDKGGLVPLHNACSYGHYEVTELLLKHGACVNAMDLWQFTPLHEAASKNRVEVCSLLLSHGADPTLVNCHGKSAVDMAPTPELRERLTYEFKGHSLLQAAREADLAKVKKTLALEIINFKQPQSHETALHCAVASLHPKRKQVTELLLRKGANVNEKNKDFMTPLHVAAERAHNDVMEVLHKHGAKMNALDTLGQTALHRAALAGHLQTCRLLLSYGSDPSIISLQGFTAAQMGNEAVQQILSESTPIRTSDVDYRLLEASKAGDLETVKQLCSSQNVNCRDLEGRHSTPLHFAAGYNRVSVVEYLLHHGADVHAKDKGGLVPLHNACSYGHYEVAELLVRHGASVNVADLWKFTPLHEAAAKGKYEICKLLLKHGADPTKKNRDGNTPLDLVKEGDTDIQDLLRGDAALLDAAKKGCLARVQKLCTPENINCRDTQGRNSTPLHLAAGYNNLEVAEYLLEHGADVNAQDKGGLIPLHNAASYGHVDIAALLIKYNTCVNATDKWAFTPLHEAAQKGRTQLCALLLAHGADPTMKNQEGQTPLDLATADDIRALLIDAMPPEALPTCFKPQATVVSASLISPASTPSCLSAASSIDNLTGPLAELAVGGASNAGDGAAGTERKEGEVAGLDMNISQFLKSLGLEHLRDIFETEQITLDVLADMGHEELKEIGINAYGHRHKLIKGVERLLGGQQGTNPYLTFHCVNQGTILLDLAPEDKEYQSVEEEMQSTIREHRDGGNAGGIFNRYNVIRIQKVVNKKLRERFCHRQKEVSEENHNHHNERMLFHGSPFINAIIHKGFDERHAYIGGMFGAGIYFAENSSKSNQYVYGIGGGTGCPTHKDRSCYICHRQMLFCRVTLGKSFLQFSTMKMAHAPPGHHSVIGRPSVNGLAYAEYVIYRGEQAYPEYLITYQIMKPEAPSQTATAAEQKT
Method: NADase activity of Tankyrase 1 was measured by quantifying released nicotinamide using liquid chromatography mass spectrometry. Varying concentrations of experimental compounds were incubated in 10 μL reactions containing 25 nM recombinant Tankyrase 1, 1 mM NAD+, 5 μM d4-nicotinamide internal standard, 2% DMSO, 50 mM Tris pH 7.5, 5 mM CaCl2, and 0.01% Triton X-100 for 1 h at RT. Reactions were quenched by mixing 2 μL of the reaction mixture with 98 μL of 0.05% formic acid. 1 μL of quenched reaction was loaded onto a reverse phase BEH-Phenyl column (Waters) pre-equilibrated with 1 mM ammonium formate and eluted with a linear gradient to 80% acetonitrile. Compound IC50s were determined by four-parameter curve fitting.
as §16

T1 sequence (P09874 whole entry): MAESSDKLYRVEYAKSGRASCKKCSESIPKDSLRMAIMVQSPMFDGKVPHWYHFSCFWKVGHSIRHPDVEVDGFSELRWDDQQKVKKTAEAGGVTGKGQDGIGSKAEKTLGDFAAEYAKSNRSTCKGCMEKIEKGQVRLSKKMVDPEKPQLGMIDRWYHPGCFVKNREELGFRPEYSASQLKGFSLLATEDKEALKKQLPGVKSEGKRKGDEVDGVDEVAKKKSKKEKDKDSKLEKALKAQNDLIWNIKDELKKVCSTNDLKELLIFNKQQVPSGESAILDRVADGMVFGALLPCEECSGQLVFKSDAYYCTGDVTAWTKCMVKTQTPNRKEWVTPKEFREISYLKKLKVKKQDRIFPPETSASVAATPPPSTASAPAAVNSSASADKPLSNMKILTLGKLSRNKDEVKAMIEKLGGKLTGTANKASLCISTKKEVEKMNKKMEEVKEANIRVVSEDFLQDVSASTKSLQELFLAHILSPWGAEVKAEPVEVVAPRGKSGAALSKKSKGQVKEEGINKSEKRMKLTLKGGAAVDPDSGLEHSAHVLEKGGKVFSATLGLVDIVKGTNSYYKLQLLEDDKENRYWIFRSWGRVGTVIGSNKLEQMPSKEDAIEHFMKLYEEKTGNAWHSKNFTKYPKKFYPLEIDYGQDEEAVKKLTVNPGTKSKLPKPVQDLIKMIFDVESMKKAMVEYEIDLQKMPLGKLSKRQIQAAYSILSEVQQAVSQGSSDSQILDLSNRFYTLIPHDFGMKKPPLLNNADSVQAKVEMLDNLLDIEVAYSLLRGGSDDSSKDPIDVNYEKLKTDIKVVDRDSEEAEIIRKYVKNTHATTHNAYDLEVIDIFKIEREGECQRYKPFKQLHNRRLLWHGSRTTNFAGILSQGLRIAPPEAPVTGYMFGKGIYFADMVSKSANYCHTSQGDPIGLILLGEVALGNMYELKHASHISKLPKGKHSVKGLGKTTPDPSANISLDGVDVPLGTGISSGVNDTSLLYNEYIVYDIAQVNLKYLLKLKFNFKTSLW
T3 sequence (Q9H2K2 934-1166): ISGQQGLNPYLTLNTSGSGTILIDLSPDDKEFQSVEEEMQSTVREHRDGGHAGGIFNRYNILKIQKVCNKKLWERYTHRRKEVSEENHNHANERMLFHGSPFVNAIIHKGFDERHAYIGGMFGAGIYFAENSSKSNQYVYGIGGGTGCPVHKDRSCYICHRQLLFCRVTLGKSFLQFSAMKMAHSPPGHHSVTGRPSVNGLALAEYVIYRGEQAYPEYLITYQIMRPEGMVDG

| Structure (SMILES) | IC50 [1] [nM] | IC50 (Tankyrase 1 (TNKS1)) [nM] | IC50 (tankyrase 2 (His6-TNKS2)) [nM] | IC50 (Tankyrase 1) [nM] |
| --- | --- | --- | --- | --- |
| C=CCn1ccc2c(=O)[nH]c(-c3ccc(C(F)(F)F)cc3)nc21 [Example 52, 7-Allyl-2-(4-trifluoromethyl-phenyl)-3,7-dihydro-pyrrolo[2,3-d]pyrimidin-4-one] | > 50000 | 750 | 730 |  |
| O=c1[nH]c(-c2ccc(C(F)(F)F)cc2)nc2c1ccn2CCC(O)CO (stereo not shown) [Example 53, 7-(3,4-Dihydroxy-butyl)-2-(4-trifluoromethyl-phenyl)-3,7-dihydro-pyrrolo[2,3-d]pyrimidin-4-one] | 2380 | 240 | 168 |  |
| O=c1[nH]c(-c2ccc(C(F)(F)F)cc2)nc2c1ccn2CC(O)CO (stereo not shown) [Example 54, 7-(2,3-Dihydroxy-propyl)-2-(4-trifluoromethyl-phenyl)-3,7-dihydro-pyrrolo[2,3-d]pyrimidin-4-one] | 13500 | 425 | 237 |  |
| CCNC(=O)c1ccc(N2CCN(c3nc4c(ccn4C)c(=O)[nH]3)CC2)cc1 [Example 55, N-Ethyl-4-[4-(7-methyl-4-oxo-4,7-dihydro-3H-pyrrolo[2,3-d]pyrimidin-2-yl)-piperazin-1-yl]-benzamide] | 449 | 37 | 40 |  |
| Cn1ccc2c(=O)[nH]c(-n3cccn3)nc21 [Example 56, 7-Methyl-2-pyrazol-1-yl-3,7-dihydro-pyrrolo[2,3-d]pyrimidin-4-one] | > 50000 | 7800 | 9160 |  |
| O=c1[nH]c(-c2ccc(C(F)(F)F)cc2)nc2c1ccn2CO [Example 57, 7-Hydroxymethyl-2-(4-trifluoromethyl-phenyl)-3,7-dihydro-pyrrolo[2,3-d]pyrimidin-4-one] | 1880 | 48 | 65 |  |
| Cn1ccc2c(=O)[nH]c(N3CC(C)(c4ccccc4)C3)nc21 [Example 58, 7-Methyl-2-(3-methyl-3-phenyl-azetidin-1-yl)-3,7-dihydro-pyrrolo[2,3-d]pyrimidin-4-one] | 1310 | 108 | 100 |  |
| O=c1[nH]c(-c2ccc(C(F)(F)F)cc2)nc2c1ccn2C1CC1 [Example 59, 7-Cyclopropyl-2-(4-trifluoromethyl-phenyl)-3,7-dihydro-pyrrolo[2,3-d]pyrimidin-4-one] | > 50000 | 545 | 619 |  |
| O=c1[nH]c(N2CCN(c3ccccc3F)CC2)nc2c1ccn2CO [Example 60, 2-[4-(2-Fluoro-phenyl)-piperazin-1-yl]-7-hydroxymethyl-3,7-dihydro-pyrrolo[2,3-d]pyrimidin-4-one] | 10600 | 33 | 55 |  |
| O=c1[nH]c(N2CCN(c3c(F)cccc3F)CC2)nc2c1ccn2CC(O)CO (stereo not shown) [Example 61, 2-(4-(2,6-difluorophenyl)piperazin-1-yl)-7-(2,3-dihydroxypropyl)-3H-pyrrolo[2,3-d]pyrimidin-4(7H)-one] | 14800 | 34 | 28 |  |
| Cn1ccc2c(=O)[nH]c(-c3ccccc3)nc21 [Example 62, 7-Methyl-2-phenyl-3,7-dihydro-pyrrolo[2,3-d]pyrimidin-4-one] | 3920 | 117 | 154 |  |
| COCCOc1cc(F)c(N2CCN(c3nc4c(ccn4CCO)c(=O)[nH]3)CC2)c(F)c1 [Example 63, 2-[4-[2 6-difluoro-4-(2-methoxyethoxy)phenyl]piperazin-1-yl]-7-(2-hydroxyethyl)-3H-pyrrolo[2,3-d]pyrimidin-4-one] |  |  |  | 9.67 |
